Columns and labels:
Test in all cases: viability relative to DMSO control (fraction); higher = less drug effect (more viable cells)
Details in all cases: 48 h
[1] = tested on: primary MCL patient cells (S063)
Outline: (§1)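 Using 384-well plates with compounds already plated at five concentrations, one well per concentration, 4 × 10^4 primary mononuclear tumour cells were added per well. Cells were Ficoll-isolated from blood or bone marrow or came from processed lymph node, fresh or cryopreserved. They were kept for 48 h at 37 °C and 5% CO2 in RPMI-1640 supplemented with penicillin/streptomycin, L-glutamine and human serum, and viability was read as CellTiter-Glo luminescence relative to the median of 16 inner DMSO wells.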

[2] = tested on: primary MCL patient cells (S068)
Outline: as §1

[3] = tested on: primary AML patient cells (S072)
Outline: as §1

[4] = tested on: primary MCL patient cells (S053)
Outline: as §1

[5] = tested on: primary ALL patient cells (S048)
Outline: as §1

[6] = tested on: primary AML patient cells (S025)
Outline: as §1

[7] = tested on: primary CLL patient cells (S043)
Outline: as §1

[8] = tested on: primary FL patient cells (S022)
Outline: as §1

[9] = tested on: primary AML patient cells (S021)
Outline: as §1

[10] = tested on: primary AML patient cells (S006)
Outline: as §1

[11] = tested on: primary AML patient cells (S079)
Outline: as §1

[12] = tested on: primary AML patient cells (S002)
Outline: as §1

[13] = tested on: primary AML patient cells (S012)
Outline: as §1

[14] = tested on: primary AML patient cells (S081)
Outline: as §1

[15] = tested on: primary T-PLL patient cells (S008)
Outline: as §1

[16] = tested on: primary BL patient cells (S005)
Outline: as §1

[17] = tested on: primary AML patient cells (S017)
Outline: as §1

[18] = tested on: primary AML patient cells (S055)
Outline: as §1

[19] = tested on: primary AML patient cells (S056)
Outline: as §1

[20] = tested on: primary AML patient cells (S009)
Outline: as §1

Which results are given for `CC(=O)Nc1cccc(-n2c(=O)n(C3CC3)c(=O)c3c(Nc4ccc(I)cc4F)n(C)c(=O)c(C)c32)c1` [Trametinib]?
viability ([1]; 0.0008 µM): 0.991; viability ([1]; 0.004 µM): 0.973; viability ([1]; 0.02 µM): 0.987; viability ([1]; 0.1 µM): 0.949; viability ([1]; 0.5 µM): 0.936; viability ([2]; 0.0008 µM): 0.921; viability ([2]; 0.004 µM): 0.8; viability ([2]; 0.02 µM): 0.791; viability ([2]; 0.1 µM): 0.727; viability ([2]; 0.5 µM): 0.7; viability ([3]; 0.0008 µM): 0.907; viability ([3]; 0.004 µM): 0.859; viability ([3]; 0.02 µM): 0.751; viability ([3]; 0.1 µM): 0.732; viability ([3]; 0.5 µM): 0.69; viability ([4]; 0.0008 µM): 0.885; viability ([4]; 0.004 µM): 0.899; viability ([4]; 0.02 µM): 0.818; viability ([4]; 0.1 µM): 0.806; viability ([4]; 0.5 µM): 0.733; viability ([5]; 0.0008 µM): 0.818; viability ([5]; 0.004 µM): 0.766; viability ([5]; 0.02 µM): 0.674; viability ([5]; 0.1 µM): 0.666; viability ([5]; 0.5 µM): 0.592; viability ([6]; 0.0008 µM): 0.74; viability ([6]; 0.004 µM): 0.618; viability ([6]; 0.02 µM): 0.644; viability ([6]; 0.1 µM): 0.561; viability ([6]; 0.5 µM): 0.554; viability ([7]; 0.0008 µM): 0.825; viability ([7]; 0.004 µM): 0.769; viability ([7]; 0.02 µM): 0.777; viability ([7]; 0.1 µM): 0.748; viability ([7]; 0.5 µM): 0.744; viability ([8]; 0.0008 µM): 0.845; viability ([8]; 0.004 µM): 0.986; viability ([8]; 0.02 µM): 0.851; viability ([8]; 0.1 µM): 1.18; viability ([8]; 0.5 µM): 0.824; viability ([9]; 0.0008 µM): 0.864; viability ([9]; 0.004 µM): 0.697; viability ([9]; 0.02 µM): 0.672; viability ([9]; 0.1 µM): 0.598; viability ([9]; 0.5 µM): 0.605; viability ([10]; 0.0008 µM): 0.888; viability ([10]; 0.004 µM): 0.939; viability ([10]; 0.02 µM): 0.787; viability ([10]; 0.1 µM): 0.86; viability ([10]; 0.5 µM): 0.798; viability ([11]; 0.0008 µM): 0.703; viability ([11]; 0.004 µM): 0.655; viability ([11]; 0.02 µM): 0.556; viability ([11]; 0.1 µM): 0.538; viability ([11]; 0.5 µM): 0.504; viability ([12]; 0.0008 µM): 0.398; viability ([12]; 0.004 µM): 0.432; viability ([12]; 0.02 µM): 0.364; viability ([12]; 0.1 µM): 0.437; viability ([12]; 0.5 µM): 0.402; viability ([13]; 0.0008 µM): 0.799; viability ([13]; 0.004 µM): 0.808; viability ([13]; 0.02 µM): 0.45; viability ([13]; 0.1 µM): 0.406; viability ([13]; 0.5 µM): 0.306; viability ([14]; 0.0008 µM): 0.999; viability ([14]; 0.004 µM): 0.935; viability ([14]; 0.02 µM): 0.742; viability ([14]; 0.1 µM): 0.651; viability ([14]; 0.5 µM): 0.567; viability ([15]; 0.0008 µM): 0.965; viability ([15]; 0.004 µM): 1.05; viability ([15]; 0.02 µM): 0.955; viability ([15]; 0.1 µM): 1.07; viability ([15]; 0.5 µM): 0.905; viability ([16]; 0.0008 µM): 0.943; viability ([16]; 0.004 µM): 0.964; viability ([16]; 0.02 µM): 1.01; viability ([16]; 0.1 µM): 0.984; viability ([16]; 0.5 µM): 0.912; viability ([17]; 0.0008 µM): 1.02; viability ([17]; 0.004 µM): 1.1; viability ([17]; 0.02 µM): 0.888; viability ([17]; 0.1 µM): 0.852; viability ([17]; 0.5 µM): 0.719; viability ([18]; 0.0008 µM): 0.797; viability ([18]; 0.004 µM): 0.582; viability ([18]; 0.02 µM): 0.585; viability ([18]; 0.1 µM): 0.559; viability ([18]; 0.5 µM): 0.558; viability ([19]; 0.0008 µM): 0.77; viability ([19]; 0.004 µM): 0.66; viability ([19]; 0.02 µM): 0.588; viability ([19]; 0.1 µM): 0.535; viability ([19]; 0.5 µM): 0.514; viability ([20]; 0.0008 µM): 1.09; viability ([20]; 0.004 µM): 1.17; viability ([20]; 0.02 µM): 1.24; viability ([20]; 0.1 µM): 1.24; viability ([20]; 0.5 µM): 1.04

From the supplement of paper PMC10733146
